Measurements reported in patent US8637461B2, “Method of diagnosing and treating oxidative stress-impaired wound healing” (Kuwait University, priority 2011, dated 2014).

Legend:
PI3K-p85α / IRS-1 = assay: Co-precipitation of PI3K p85α with IRS-1 in dermal fibroblasts; assay type: cell-based, rat; conditions: diabetic, TNF-α- or dexamethasone-exposed fibroblasts; EUK-134
Description: (§1) Primary dermal fibroblasts were obtained from dorsal skin of female Goto Kakizaki (GK, age 12-15 months) rats, a model for non-obese type 2 diabetes, and their Wistar control counterparts. After sterilization in povidine solution, rat skin was washed in sterile water and rinsed in 70% ethanol in PBS. Epidermis and dermis were separated following overnight incubation in 0.25% trypsine/EDTA at 4 C. Dermis was cut into small pieces and incubated in Dulbecco's modified Eagle medium (DMEM; Invitrogen) containing collagenase (250 U/ml; Sigma) for thirty min at 37 C in 5% CO2 with constant agitation. The sections were triturated vigorously to release fibroblasts, which were collected by centrifugation. […]
(§2) A hypercortisolemic state was mimicked by exposing control fibroblasts to dexamethasone (Dexa, Sigma) administered at 20 ng/ml every other day for a duration of 8 days. […] The concentration of IGF-1 (50 ng/ml, Peprotech) was determined by prior dose response experiment.
Levels/activities of key intracellular molecules in the IGF-1 signaling cascade including IRS-1, IRS-1 Tyr-p-612, PI3K-p85α, IRS-1 Ser-p (307), PI3K, Akt, p-Akt, INK and p-JNK were assessed using western blotting/immunoprecipitation and commercially available ELISA-based assays. […]

Akt = Akt phosphorylation, FACE cell-based ELISA in fixed fibroblasts; design: species or system rat; conditions: diabetic, TNF-α- or dexamethasone-exposed cells, EUK-134
Description: as §1, §2
(§3) Activation of Akt and JNK was analyzed in fixed fibroblasts using FACE-Akt and FACE-JNK (both from Active Motife). […] Labeling with antibodies was conducted according to the manufacturer's protocol and the resulting phosphoantibody signal was calculated after correction for number of cells and total Akt or JNK levels in each sample. […]

[1] = test system: Jun N-terminal kinase (JNK); assay: JNK phosphorylation, FACE-JNK ELISA in fibroblasts; assay type: cell-based, rat; conditions: diabetic, TNF-α- or dexamethasone-exposed cells; EUK-134
Description: as §1, §2, §3

[2] = Rapid insulin sensitivity test (RIST) with IGF-1 instead of insulin; assay type: in vivo, rat; conditions: diabetic/hypercortisolemic rats, chronic administration of antioxidant
Description: (§4) All animal procedures were performed in accordance with the NIH Guidance for the Care and Use of Laboratory Animals. The current study used, respectively the GK and Dexamethasone-treated rats as models for diabetes and hypercortisolemia. Dexamethasone was administered subcutaneously at a dose of 2.5 μg/kg body weight in the morning (8:00 AM) and in the evening (8:00 PM) for a duration of four weeks before wounding and this form of therapy continued during the course of healing. […] Weight and age-matched female Wistar rats (Kuwait University breeding colony) served as the corresponding controls. All of the animals were maintained under standard conditions with 12 hours on/off light cycle, commercial diet, and water ad libitum. GK rats destined for wounding were initially matched with regard to body weight (e.g., 230 to 250 g), and plasma levels of glucose, free fatty acids and insulin. These indices are commonly used to reflect the severity of the diabetic state.
(§5) Animals used for IGF-1 sensitivity (n=6/group) and wound healing (n=8) studies were partitioned into five study groups including control, diabetic, hypercortisolemic, diabetic+EUK and hypercortisolemic+EUK. The EUK-134 was administered for duration of four weeks before wound induction and it continued during the course of healing.
IGF-1 sensitivity in control, diabetic and hypercortisolemic animals was determined using the rapid insulin sensitivity test (RIST) with IGF-1 (200 μg/kg BW) infused instead of insulin. The RIST index is the amount of glucose per kg body weight required to maintain euglycemia following a bolus of insulin (50 mU/kg BW).

excisional wounds = assay: Full-thickness excisional wound healing, 7 days; assay type: in vivo, rat
Description: as §4, §5
Animals derived from various experimental groups were anesthetized by ip, injection of 90 mg ketamine+10 mg xylazine/kg body weight, and their back skin was shaved, depilated with Nair and cleaned with 70% alcohol. Six bilateral full-thickness excisional wounds (8 mm in diameter) at equidistant from midline were created on the dorso-rostral back skin. Wounds were separated by a minimum of 1 cm of uninjured skin. […] The wound area was analyzed using Adobe PhotoShop (version 7.0; Adobe Systems) and the percentage of wound closure was derived by the following formula: (1−[current wound size/initial wound size])×100.

[3] = Body weight and fasting plasma parameters in diabetic and hypercortisolemic rats; assay type: in vivo, rat
Description: as §4, §5

[4] = dexamethasone-treated (hypercortisolemic) rats + EUK-134 12.5 mg/kg ip every other day
[5] = diabetic (GK) rats + EUK-134 12.5 mg/kg ip every other day

COc1cccc(C=NCCN=Cc2cccc(OC)c2[O-])c1[O-].[Cl-].[Mn+3] [EUK-134]
association of PI3K p85α with IRS-1 in response to IGF-1 (PI3K-p85α / IRS-1): restores this association
Akt phosphorylation in response to IGF-1 (Akt): partially restored
basal JNK activity (phosphorylation) [1]: returns its phosphorylation state to approximate levels found in normal fibroblasts
improvement of glucose metabolism in response to bolus injection of IGF-1 [2]: about 20%
wound healing (excisional wounds; diabetic rats, treatment with EUK-134 and/or IGF-1): heal as rapidly as those on control rats
healing rates of wounds (excisional wounds; diabetic/hypercortisolemic rat wounds, antioxidant administered): statistically indistinguishable from control rat wounds treated with IGF-1 alone
FBG (fasting blood glucose) [3, 4]: 81 ± 12 mg/dL
FFA (free fatty acid) [3, 4]: 327 ± 16 µM
FPI (fasting plasma insulin) [3, 4]: 0.58 ± 0.052 ng/mL
FBG (fasting blood glucose) [3, 5]: 122 ± 18 mg/dL
FFA (free fatty acid) [3, 5]: 353 ± 18 µM
FPI (fasting plasma insulin) [3, 5]: 0.66 ± 0.05 ng/mL
abnormalities regarding lipid and carbohydrate profiles ([3]; diabetic and hypercortisolemic rats, chronic treatment with ROS suppressors): ameliorated
